This experiment relates to Plasmodium berghei. Description: Luciferase/luciferin-expressing antifolate-resistant parasites were used to infect a culture of HepG2 cells that were pre-incubated with compounds. Infected hepatocytes emit light due to the luciferase reaction. Assay results are presented as the percent inhibition of light emission compared to control. […]. It is filed as functional. Particulars: sporozoite; for IC90: read-out: LUCIFERASE INFECTION ASSAY - IC90.

The mark [1] stands for this setting: read-out: LUCIFERASE INFECTION ASSAY - IC50.

The IC50 is the concentration needed to halve the response being measured. Broadly, the IC90 is the concentration at which the effect reaches the 90% level. Regarding `Cc1ccc(Cn2nc(C)cc2C(=O)Sc2ccc(Cl)cc2)cc1`, the IC90 was greater than 9.25 µM. Further, the IC50 (FFLUC_HILL_SLOPE 19.8, FFLUC_R_SQUARED 0.763, PBLUC_HILL_SLOPE 2.54, PBLUC_R_SQUARED 0.663, read-out: LUCIFERASE INFECTION ASSAY - IC50) worked out at 5.77 µM.

As to `COc1ccc(NCC2(c3ccnc(-c4ccccc4Cl)c3)CC2)cn1`, the IC90 was greater than 10 µM. Moreover, the IC50 (HEPG2TOX_HILL_SLOPE 2.53, HEPG2TOX_R_SQUARED 0.891, PBLUC_HILL_SLOPE 5.38, PBLUC_R_SQUARED 0.384, read-out: LUCIFERASE INFECTION ASSAY - IC50) turned out to be 7.39 µM.

On to `CCOc1cc2ccccc2cc1C(=O)NOCc1ccccc1`, for which the IC90 is greater than 10 µM. For the same molecule, where the note is “PBLUC_HILL_SLOPE 2.14, PBLUC_R_SQUARED 0.146, read-out: LUCIFERASE INFECTION ASSAY - IC50”, the IC50 was greater than 10 µM.

Consider `Cc1ccc(-c2cnc3ccc(NCc4cccs4)nn23)cc1`, for which the concentration for an effect of 90% (IC90) was greater than 10.3 µM. Also, the IC50 (PBLUC_HILL_SLOPE 1.88, PBLUC_R_SQUARED 0.642, read-out: LUCIFERASE INFECTION ASSAY - IC50) amounted to 4.8 µM.

Take `CC(=O)Nc1cccc(-c2ccc3c(-c4ccccc4Oc4ccccc4)[nH]nc3n2)c1`: the 90% effect concentration (IC90) was greater than 7.85 µM. For the same molecule, the IC50 (HEPG2TOX_HILL_SLOPE 12.7, HEPG2TOX_R_SQUARED 0.516, PBLUC_HILL_SLOPE 10.9, PBLUC_R_SQUARED 0.441, read-out: LUCIFERASE INFECTION ASSAY - IC50) worked out at 6.81 µM.

`Cn1c(NCc2ccccc2F)nc2cnc(-c3ccc(Cl)cc3)cc21`: the 90% effect concentration (IC90) was greater than 10 µM. Moreover, the concentration for half-maximal inhibition (IC50) under setting [1] is greater than 10 µM.

Turning to `CCOc1ccc(C(=O)CN(C#N)C(=O)c2ccccc2)cc1`, the IC90 came to 0.758 µM. Besides, the IC50 (HEPG2TOX_HILL_SLOPE 0.95, HEPG2TOX_R_SQUARED 0.917, PBLUC_HILL_SLOPE 159, PBLUC_R_SQUARED 0.609, read-out: LUCIFERASE INFECTION ASSAY - IC50) amounted to 0.747 µM.

For the molecule `C(=N\Nc1ncnc2sc3c(c12)CCCC3)/c1c(-c2ccccc2)n(-c2ccccc2)c2ccccc12`, the IC90 is greater than 10 µM. For the same molecule, the IC50 under setting [1] is greater than 10 µM.

Regarding `O=C(/C=C/c1ccc(Cl)c(Cl)c1)NNC(=O)C1COc2ccccc2O1` (configuration not stated), the IC90 is 9.08 µM. Also, the IC50 (PBLUC_HILL_SLOPE 3.24, PBLUC_R_SQUARED 0.588, read-out: LUCIFERASE INFECTION ASSAY - IC50) turned out to be 4.61 µM.

With `Fc1ccc(CN2CCN(Cc3ccco3)CC2)cc1`, the IC90 was greater than 12 µM. The IC50 under setting [1] was greater than 12 µM.

Take `c1ccc(-c2cn3c(-c4ccc5c(c4)OCO5)cnc3cn2)cc1`: the IC90 was greater than 10.5 µM. Besides, the IC50 (HEPG2TOX_HILL_SLOPE 0.346, HEPG2TOX_R_SQUARED 0.507, PBLUC_HILL_SLOPE 2.83, PBLUC_R_SQUARED 0.466, read-out: LUCIFERASE INFECTION ASSAY - IC50) stood at 9.02 µM.

For `Cc1ccc(-c2cnc3ccc(NC4CCOCC4)nn23)cc1`, the IC90 is 10.4 µM. The IC50 under setting [1] turned out to be 3.16 µM.

`CN1/C(=C\C=N\NC(=O)c2ccccc2NS(=O)(=O)c2cccs2)C(C)(C)c2ccccc21`: the IC90 was determined as 1.2 µM. Also, the IC50 (HEPG2TOX_HILL_SLOPE 16.9, HEPG2TOX_R_SQUARED 0.641, PBLUC_HILL_SLOPE 12.4, PBLUC_R_SQUARED 0.659, read-out: LUCIFERASE INFECTION ASSAY - IC50) amounted to 1.01 µM.

Turning to `Cc1cc(Oc2ccc(C(F)(F)F)cc2NS(=O)(=O)c2cc(C(F)(F)F)cc(C(F)(F)F)c2)cc(C)c1Cl`, the 90% effect concentration (IC90) is greater than 5.58 µM. Under setting [1], the concentration for half-maximal inhibition (IC50) was greater than 5.58 µM.

`S=c1n(CN2CCN(c3ccccc3Cl)CC2)nc(-c2cccs2)n1Cc1ccccc1`: the IC90 came out at 0.362 µM. Besides, the IC50 (PBLUC_HILL_SLOPE 3, PBLUC_R_SQUARED 0.854, read-out: LUCIFERASE INFECTION ASSAY - IC50) is 0.174 µM.

For the molecule `CC(=O)Nc1ccc(-c2cnc3ccc(-c4ccoc4)nn23)cc1`, the IC90 amounted to 4.31 µM. Moreover, the IC50 under setting [1] is 3.52 µM.

As for `Cc1c(OCC(=O)Nc2ccccc2)ccc2c1OC(C)(C)C=C2`, the IC90 amounted to 0.79 µM. For the same molecule, the IC50 (FFLUC_HILL_SLOPE 0.847, FFLUC_R_SQUARED 0.632, PBLUC_HILL_SLOPE 1.69, PBLUC_R_SQUARED 0.702, read-out: LUCIFERASE INFECTION ASSAY - IC50) is 0.216 µM.

As to `Cc1c(C)n(CCCO)c2ncn3nc(-c4ccc(N(C)C)cc4)nc3c12`, the IC90 is 3.79 µM. Also, the IC50 (FFLUC_HILL_SLOPE 0.464, FFLUC_R_SQUARED 0.882, PBLUC_HILL_SLOPE 0.457, PBLUC_R_SQUARED 0.781, read-out: LUCIFERASE INFECTION ASSAY - IC50) is 0.0311 µM.

As for `CCCn1c(NC(=O)c2ccccc2SCc2c(C)noc2C)nc2ccccc21`, the IC90 was found to be 9.89 µM. The concentration for half-maximal inhibition (IC50) (FFLUC_HILL_SLOPE 30, FFLUC_R_SQUARED 0.401, HEPG2TOX_HILL_SLOPE 7.23, HEPG2TOX_R_SQUARED 0.341, PBLUC_HILL_SLOPE 15.1, PBLUC_R_SQUARED 0.618, read-out: LUCIFERASE INFECTION ASSAY - IC50) is 8.55 µM.

For `Cc1cccc(C2CC(=O)Nc3[nH]c(-c4ccccc4)nc(=O)c32)c1` (configuration not stated), the IC90 was greater than 9.96 µM. In addition, the IC50 (PBLUC_HILL_SLOPE 13.4, PBLUC_R_SQUARED 0.0843, read-out: LUCIFERASE INFECTION ASSAY - IC50) came to 9.49 µM.

Regarding `CCn1c(SCc2csc(N(C(C)=O)c3c(C)cc(C)cc3Cl)n2)nnc1C1CC1`, the IC90 was greater than 10 µM. The IC50 under setting [1] is greater than 10 µM.

In the case of `CCCc1ccc(-c2nc(NC(=O)C3CCCN(c4ncccn4)C3)sc2C)cc1` (configuration not stated), the IC90 was greater than 10 µM. Besides, the IC50 (FFLUC_HILL_SLOPE 11.3, FFLUC_R_SQUARED 0.0894, PBLUC_HILL_SLOPE 12.7, PBLUC_R_SQUARED 0.313, read-out: LUCIFERASE INFECTION ASSAY - IC50) turned out to be 9.57 µM.

As to `Cc1cc(C(=O)OCC(=O)N(CCC#N)c2ccc(F)cc2)c2ccccc2n1`, the IC90 is greater than 10 µM. Further, under setting [1], the IC50 is greater than 10 µM.

Regarding `Cc1nc(NC(=O)Cc2nn(C)c(=O)c3ccccc23)sc1-c1ccccn1`, the IC90 was greater than 10 µM. Moreover, under “HEPG2TOX_HILL_SLOPE 1.36, HEPG2TOX_R_SQUARED 0.975, PBLUC_HILL_SLOPE 4.04, PBLUC_R_SQUARED 0.363, read-out: LUCIFERASE INFECTION ASSAY - IC50”, the IC50 amounted to 8.34 µM.

Consider `Fc1ccc(CNCC2(c3ccnc(-c4ccc(Cl)cc4)c3)CC2)cc1`, for which the IC90 was greater than 10 µM. Further, where the note is “PBLUC_HILL_SLOPE 1.81, PBLUC_R_SQUARED 0.142, read-out: LUCIFERASE INFECTION ASSAY - IC50”, the IC50 was greater than 10 µM.

With `O=C(NNC(=O)c1cc(-c2ccc(Cl)s2)nc2ccccc12)c1cnccn1`, the IC90 is 1.27 µM. Also, where the note is “HEPG2TOX_HILL_SLOPE 2.73, HEPG2TOX_R_SQUARED 0.802, PBLUC_HILL_SLOPE 17.7, PBLUC_R_SQUARED 0.568, read-out: LUCIFERASE INFECTION ASSAY - IC50”, the IC50 worked out at 1.12 µM.

(Values after ChEMBL document CHEMBL4483862, “Open-source discovery of chemical leads for next-generation chemoprotective antimalarials” (2018).)
